Test [1] deals with HIV-1 protease (saquinavir)-resistant. Kind of test: HIV-1 infection of TZM reporter cells, β-galactosidase. In kind it is cell-based. The settings on record: read-out: EC50, inhibition of HIV-1 infection. The source says:
(§1) the reverse transcriptase inhibitor-resistant HIV-1 variant (nevirapine-resistant N119), the protease inhibitor-resistant HIV-1 variant (saquinavir-resistant), and the naturally occurring primary ALV-resistant variant CMU08 (contributed by Kenrad Nelson) were obtained from the AIDS Research and Reference Reagent Program. Lab-adapted wild-type NL4.3 and the ALV-resistant V86P/H87Q/I91V/M96I NL4.3 capsid mutant variant were described previously. For infection scoring, TZM-bl target cells (contributed by J. C. Kappes, X. Wu, and Tranzyme, Inc.) obtained through the AIDS Research and Reference Reagent Program were exposed to wild-type or drug-resistant HIV-1 variants (1 ng of p24) together with increasing concentrations of DMSO or CypI. HIV-1 infection was quantified 48 h post-infection by measuring β-galactosidase activity in cell lysates.
(§2) We then tested the efficacy of CPI-431-32 and ALV against a panel of drug-resistant HIV-1 and HCV variants. Specifically, we measured CPI-431-32 EC50 on a reverse transcriptase inhibitor-resistant HIV-1 variant (nevirapine-resistant), a protease inhibitor-resistant HIV-1 variant (saquinavir-resistant), and two partially ALV-resistant HIV-1 variants—a lab-adapted resistant variant (V86P/H87Q/I91V/M96I capsid mutant) and a naturally occurring primary partially resistant variant (CMU08). […] HIV-1 infection was quantified 48 h post-infection by measuring β-galactosidase activity in cell lysates.

Test [2] relates to HIV-1 ALV-resistant (NL4.3 V86P/H87Q/I91V/M96I). The test is described as above. The settings on record: read-out: EC50, inhibition of HIV-1 infection. In kind it is cell-based.
Text: as §1, §2

Test [3] has as its system HIV-1 ALV-resistant (CMU8). The description is as above. In kind it is cell-based. The settings on record: read-out: EC50, inhibition of HIV-1 infection.
Text: as §1, §2

The subject of test [4] is HIV-1 reverse transcriptase (nevirapine)-resistant. Described as above. As to conditions: read-out: EC50, inhibition of HIV-1 infection. In kind it is cell-based.
Text: as §1, §2

Test [5] deals with HIV-1 wild-type (NL4.3). Described as above. The settings on record: read-out: EC50, inhibition of HIV-1 infection. In kind it is cell-based.
Text: as §1, §2

The test system of test [6] is HIV-1 NL4.3. Description: HIV-1 nuclear import analysis, integrase Western blot of cytoplasmic and nuclear extracts. In kind it is cell-based. As to conditions: 2 μM; 6 h post-infection; nuclear extract. The protocol:
CD4+ HeLa cells (10^7 cells) were infected with NL4.3 (1 μg of p24) derived from 293T-transfected cells in the presence or absence of CPI-431-32 (2 μM). Six hours post-infection, cells were fractionated using the Thermo Scientific NE-PER nuclear and cytoplasmic extraction kit (Life Technologies). Cytoplasmic and nuclear extracts were analyzed by Western blotting using anti-HIV-1 integrase (Abcam), anti-CypA (Abcam) and anti-histone H2 (Abcam) antibodies.
Fig 4 CPI-431-32 blocks HIV-1 reverse transcription and nuclear import. TZM cells were infected with DNase-treated NL4-3 HIV-1 together with DMSO or CPI-431-32 (2 μM). Target cell DNA was isolated at the indicated times and was used to detect early (A) and late HIV-1 reverse transcripts (B). TZM cells were infected with NL4.3 in the presence or absence of CPI-431-32 (2 μM). Six hours post-infection, cells were fractionated and cytoplasmic and nuclear extracts analyzed by Western blotting (C). […]
To further elucidate the effects of CypA-capsid disruption, we analyzed how CPI-431-32 affects the distribution of incoming HIV-1 cores within the first 6 hours of infection as determined by the presence of the HIV-1 integrase protein. TZM cells were infected with HIV-1 NL4.3 for 6 h in the absence or presence of CPI-431-32, then fractionated into cytosolic and nuclear extracts for quantitation of HIV-1 integrase by Western blotting. […]
For orientation: In western blotting, separated proteins are transferred to a membrane and probed.

The test system of test [7] is HCV-mediated double-membrane vesicle (DMV) formation. Description: HCV NS3-NS5B-mediated double membrane vesicle (DMV) formation in T7/Huh7.5.1 cells, EM. In kind it is cell-based, human. The settings on record: for DMV number: T7/Huh7.5.1 cells, pTMI (NS3-NS5B), DMSO control 365 +/- 18. The protocol:
HCV-mediated DMV formation studies were conducted as we described recently using the pTM1(NS3-NS5B) plasmid and the T7/Huh7.5.1 cells developed by the Tai lab.
We then investigated the mechanism by which CPI-431-32 inhibits HCV replication. HCV is well known for its ability to reshape intracellular membranes to optimize RNA synthesis, especially by re-organizing the ER membrane close to the nucleus—the so-called membranous web (MW). […] We and others recently obtained evidence that the formation of DMVs highly depends on both CypA and HCV NS5A [60, 71, 72]. We thus asked whether CPI-431-32 inhibits HCV replication by preventing the creation of DMVs. To test this hypothesis, we took advantage of a T7 promoter driven JFH-1 NS3-NS5B DNA plasmid (pTM1(NS3-5B)) developed by the Tai lab that permits expression of NS3, NS4A, NS4B, NS5A and NS5B upon HCV polyprotein processing as well as viral RNA synthesis when transfected in T7 RNA polymerase expressing Huh7.5.1 cells (T7/Huh7.5.1 cells). Importantly, the expression of the HCV NS3-NS5B polyprotein suffices to create both the MV and DMVs independently of viral replication. All controls were presented previously. As we and others recently reported, NS3-5B expression mediates the formation of a significant number of DMVs in DMSO-treated cells (Fig 5).
Fig 5 CPI-431-32 blocks HCV-mediated double-membrane vesicle (DMV) formation. T7 polymerase expressing Huh7.5.1 cells were transfected in triplicates with JFH-1 NS3-NS5B plasmid in the presence of DMSO or increasing concentrations of CPI-431-32 and analyzed by EM as well as by Image J and ITEM software for DMVs quantification as described previously. Illustrating EM images of DMVs are presented with an amplification of 25,000x. Data are representative of two independent experiments. TEXT PRINTED IN THE PICTURE: DMSO: DMV number: 0 (Cells: T7/Huh7.5.1; HCV Plasmids: –); DMV number: 365 +/- 18 (Cells: T7/Huh7.5.1; HCV Plasmids: pTMI (NS3-NS5B)) | CPI-431-32: DMV number: 1 +/- 0 (2 μM; Cells: T7/Huh7.5.1; HCV Plasmids: pTMI (NS3-NS5B)); DMV number: 8 +/- 2 (0.5 μM; Cells: T7/Huh7.5.1; HCV Plasmids: pTMI (NS3-NS5B)); DMV number: 61 +/- 6 (0.125 μM; Cells: T7/Huh7.5.1; HCV Plasmids: pTMI (NS3-NS5B)); DMV number: 312 +/- 45 (0.03125 μM; Cells: T7/Huh7.5.1; HCV Plasmids: pTMI (NS3-NS5B))

The mark [8] stands for this setting: Human immunodeficiency virus 1, TZM, 48 h.

The term EC50 denotes the concentration needed to bring the measured effect to its halfway point.

Molecules are shown by their SMILES. Like-named read-outs stand apart in the source and are kept apart here. Non-standard residues stand in square brackets, D forms with d. Residues, ends and D or L forms follow the SMILES beside them. NMeThr(4R-Me,4-(CH2)6NHAc) = CN[C@H](C(=O)O)[C@H](O)[C@H](C)CCCCCCNC(C)=O; NMeL = CN[C@@H](CC(C)C)C(=O)O; NMeV = CN[C@H](C(=O)O)C(C)C; dNMeA = CN[C@H](C)C(=O)O; Abu = CC[C@H](N)C(=O)O

Consider `C/C=C/C[C@@H](C)[C@@H](O)[C@H]1C(=O)N[C@@H](CC)C(=O)N(C)[C@H](C)C(=O)N(CC)[C@@H](C(C)C)C(=O)N[C@@H](C(C)C)C(=O)N(C)[C@@H](CC(C)C)C(=O)N[C@@H](C)C(=O)N[C@H](C)C(=O)N(C)[C@@H](CC(C)C)C(=O)N(C)[C@@H](CC(C)C)C(=O)N(C)[C@@H](C(C)C)C(=O)N1C` [ALV, Alisporivir], for which the EC50 in test [1] (setting [8]) was found to be 0.16 ± 0.02 µM; in test [2] (setting [8]), 2.3 ± 0.3 µM; in test [3] (setting [8]), 5.6 ± 0.4 µM; in test [4] (setting [8]) it was 0.1 ± 0.02 µM; in test [5] (Human immunodeficiency virus 1, 48 h post-infection) it was 0.12 ± 0.03 µM.

As for `CC[C@@H]1NC(=O)[C@H]([C@H](O)[C@H](C)CCCCCCNC(C)=O)N(C)C(=O)[C@H](C(C)C)N(C)C(=O)[C@H](CC(C)C)N(C)C(=O)[C@H](CC(C)C)N(C)C(=O)[C@@H](C)NC(=O)[C@H](C)NC(=O)[C@H](CC(C)C)N(C)C(=O)[C@H](C(C)C)NC(=O)[C@H](CC(C)C)N(C)C(=O)[C@@H](C)N(C)C1=O` [CPI-431-32] (cyclo(A[dA][NMeL][NMeL][NMeV][NMeThr(4R-Me,4-(CH2)6NHAc)][Abu][dNMeA][NMeL]V[NMeL])), the EC50 in test [1] (HIV-1 protease (saquinavir)-resistant, TZM cells, 48 h post-infection) was 0.07 ± 0.02 µM; in test [2] (HIV-1 ALV-resistant (NL4.3 V86P/H87Q/I91V/M96I), TZM cells, 48 h post-infection), 0.9 ± 0.1 µM; in test [3] (HIV-1 ALV-resistant (CMU8), TZM cells, 48 h post-infection) it was 2.1 ± 0.1 µM; in test [4] (HIV-1 reverse transcriptase (nevirapine)-resistant, TZM cells, 48 h post-infection), 0.03 ± 0.01 µM; in test [5] (48 h post-infection), 0.05 ± 0.01 µM. Besides, the “Nuclear accumulation of HIV-1 integrase (in words)” value in test [6] is “completely prevented the nuclear accumulation of integrase”. Also, the DMV number in test [7] (0.03125 μM) is reported as 312 +/- 45; in test [7] (0.125 μM) it was 61 +/- 6; in test [7] (0.5 μM), 8 +/- 2; in test [7] (2 μM), 1 +/- 0. The “NS3-NS5B-mediated formation of DMVs (in words)” value in test [7] (compared to DMSO control) is given as “profoundly decreased”.
